biological target: High affinity nerve growth factor receptor (Homo sapiens, UniProt P04629); assay: Inhibition Assay: A testing platform for TrkAWT kinase activity was established based on Homogeneous Time-Resolved Fluorescence (HTRF) assay, and the activities of the compounds were tested using the platform. The compounds were subjected to five-fold gradient dilution for eight times with 100% DMSO with a starting concentration of 200 μM (9 concentrations in total). 4 μL of diluted sample for …
Sequence (P04629 whole entry): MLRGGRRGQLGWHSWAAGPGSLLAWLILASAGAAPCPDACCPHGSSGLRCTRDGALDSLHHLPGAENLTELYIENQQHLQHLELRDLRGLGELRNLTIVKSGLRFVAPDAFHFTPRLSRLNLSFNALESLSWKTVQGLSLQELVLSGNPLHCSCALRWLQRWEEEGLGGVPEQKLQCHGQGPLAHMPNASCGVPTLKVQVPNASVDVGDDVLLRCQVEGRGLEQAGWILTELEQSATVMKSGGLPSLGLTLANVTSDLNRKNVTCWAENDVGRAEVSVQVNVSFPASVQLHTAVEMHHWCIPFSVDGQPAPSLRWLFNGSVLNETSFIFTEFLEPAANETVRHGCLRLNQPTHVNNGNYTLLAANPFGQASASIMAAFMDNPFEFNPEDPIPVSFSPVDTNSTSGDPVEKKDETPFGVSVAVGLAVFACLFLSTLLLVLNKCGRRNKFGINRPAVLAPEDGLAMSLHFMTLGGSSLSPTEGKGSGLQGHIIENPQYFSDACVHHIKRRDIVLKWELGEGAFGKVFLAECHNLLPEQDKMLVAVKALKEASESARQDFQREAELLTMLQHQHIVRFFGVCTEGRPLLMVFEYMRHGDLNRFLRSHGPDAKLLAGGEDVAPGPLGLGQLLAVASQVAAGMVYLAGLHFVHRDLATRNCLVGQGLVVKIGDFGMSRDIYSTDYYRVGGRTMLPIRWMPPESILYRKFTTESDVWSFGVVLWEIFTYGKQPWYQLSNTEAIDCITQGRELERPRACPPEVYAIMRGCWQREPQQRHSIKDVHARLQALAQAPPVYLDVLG

**Q.** For `Nc1nn2ccc3nc2c1C(=O)NCCOc1ncc(F)cc1C1CCCN31` (stereo not drawn), which IC50 is on record?
**A.** The IC50 was 0.8 nM.

**Q.** How did the IC50 turn out when `Nc1nn2ccc3nc2c1C(=O)NCCCn1cc(F)cc(c1=O)[C@H]1C[C@H](F)CN31` was run?
**A.** Its IC50 is 0.23 nM.

**Q.** For `C[C@@H]1CCc2ncc(F)cc2[C@H]2C[C@H](F)CN2c2ccn3nc(N)c(c3n2)C(=O)N1`, which IC50 is on record?
**A.** Its IC50 is 0.23 nM.

Reference: ChEMBL document CHEMBL5728685, “Macrocycle containing aminopyrazole and pyrimidine and pharmaceutical composition and use thereof” (2021)
